The source of these data is ChEMBL document CHEMBL1134831, “2-(3,5-Dimethylphenyl)tryptamine derivatives that bind to the GnRH receptor” (Bioorg Med Chem Lett, 2001).

In general, IC50 refers to the point on the concentration scale where inhibition reaches its midpoint. A higher IC50 goes with weaker potency in that assay.

This experiment deals with T1, Gonadotropin-releasing hormone receptor (Rattus norvegicus, UniProt P30969).
T1 sequence (P30969 whole entry): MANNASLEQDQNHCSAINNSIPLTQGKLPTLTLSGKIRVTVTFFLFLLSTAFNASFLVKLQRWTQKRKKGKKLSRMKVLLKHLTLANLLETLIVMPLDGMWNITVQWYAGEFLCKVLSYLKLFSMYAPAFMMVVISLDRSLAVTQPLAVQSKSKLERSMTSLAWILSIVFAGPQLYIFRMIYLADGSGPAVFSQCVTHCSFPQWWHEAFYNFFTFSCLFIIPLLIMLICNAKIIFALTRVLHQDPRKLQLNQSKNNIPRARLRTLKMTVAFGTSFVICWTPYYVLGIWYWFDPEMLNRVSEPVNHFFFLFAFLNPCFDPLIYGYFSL
The experiment can be described thus: Inhibition of rat GnRH receptor binding.
In the case of `Cc1cc(C)cc(-c2[nH]c3ccccc3c2CCNCCCCc2ccc(N)cc2)c1`, the IC50 is 300 nM.
Consider `CCNS(=O)(=O)Nc1ccc(CCCCNCCc2c(-c3cc(C)cc(C)c3)[nH]c3ccccc23)cc1`, for which the IC50 was found to be 40 nM.
For `Cc1cc(C)cc(-c2[nH]c3ccccc3c2CCNCCCCc2ccc(NS(=O)(=O)c3ccccc3)cc2)c1`, the IC50 is 300 nM.
Compound `CCS(=O)(=O)Nc1ccc(CCCCNCCc2c(-c3cc(C)cc(C)c3)[nH]c3ccccc23)cc1` gave an IC50 of 200 nM.
Next, `CNS(=O)(=O)Nc1ccc(CCCCNCCc2c(-c3cc(C)cc(C)c3)[nH]c3ccccc23)cc1`: 47 nM; `Cc1cc(C)cc(-c2[nH]c3ccccc3c2CCNCCCCc2ccc(NS(=O)(=O)C(C)C)cc2)c1`: 220 nM; `Cc1cc(C)cc(-c2[nH]c3ccccc3c2CCNCCCCc2ccc(F)cc2)c1`: 300 nM.
Compound `CC(=O)Nc1ccc(CCCCNCCc2c(-c3cc(C)cc(C)c3)[nH]c3ccccc23)cc1` registered an IC50 of 200 nM.
Take `Cc1cc(C)cc(-c2[nH]c3ccccc3c2CCNCCCCc2ccc(S(N)(=O)=O)cc2)c1`: the IC50 turned out to be 36 nM.
In the case of `Cc1cc(C)cc(-c2[nH]c3ccccc3c2CCNCCCCc2ccc([N+](=O)[O-])cc2)c1`, the IC50 turned out to be 500 nM.
With `CNC(=O)Nc1ccc(CCCCNCCc2c(-c3cc(C)cc(C)c3)[nH]c3ccccc23)cc1`, the IC50 worked out at 48 nM. This IC50 is about 10-fold lower than that of the compound before.
Compound `CCNC(=O)Nc1ccc(CCCCNCCc2c(-c3cc(C)cc(C)c3)[nH]c3ccccc23)cc1` showed an IC50 of 28 nM. Against the preceding compound, the IC50 is about 1.7-fold lower.
